Experimental findings from patent US20250230153A1, “2,3-DIHYDROBENZO[B][1,4]DIOXIN-6-YL CONTAINING COMPOUNDS USEFUL AS IMMUNOMODULATORS” (BRISTOL-MYERS SQUIBB COMPANY, priority 2021, published 2025) are described below.

Counter-ions that a name gives are not always drawn.

This assay addresses PD-1/PD-L1 (Homo sapiens (Human), UniProt Q9NZQ7). Put plainly: PD-1/PD-L1 Homogenous Time-Resolved Fluorescence (HTRF) binding assay. The settings on record: PD-1-Ig (20 nM final)/PD-L1-His (10 nM final) binding assay. The text has this:
The ability of the compounds of the invention to bind to PD-L1 was investigated using a PD-1/PD-L1 Homogenous Time-Resolved Fluorescence (HTRF) binding assay.
The interaction of PD-1 and PD-L1 can be assessed using soluble, purified preparations of the extracellular domains of the two proteins. The PD-1 and PD-L1 protein extracellular domains were expressed as fusion proteins with detection tags, for PD-1, the tag was the Fc portion of Immunoglobulin (PD-1-Ig) and for PD-L1 it was the 6 histidine motif (PD-L1-His). All binding studies were performed in an HTRF assay buffer consisting of dPBS supplemented with 0.1% […] bovine serum albumin and 0.05% (v/v) Tween-20. For the h/PD-L1-His binding assay, inhibitors were pre-incubated with PD-L1-His (10 nM final) for 15m in 4 μl of assay buffer, followed by addition of PD-1-Ig (20 nM final) in 1 μl of assay buffer and further incubation for 15 m. HTRF detection was achieved using europium crypate-labeled anti-Ig (1 nM final) and allophycocyanin (APC) labeled anti-His (20 nM final). Antibodies were diluted in HTRF detection buffer and 5 μl was dispensed on top of the binding reaction. The reaction mixture was allowed to equilibrate for 30 minutes and the resulting signal (665 nm/620 nm ratio) was obtained using an EnVision fluorometer. Additional binding assays were established between the human proteins PD-1-Ig/PD-L2-His (20 & 5 nM, respectively) and CD80-His/PD-L1-Ig (100 & 10 nM, respectively).
Recombinant Proteins: Human PD-1 (25-167) with a C-terminal human Fc domain of immunoglobulin G (Ig) epitope tag [hPD-1 (25-167)-3S-IG] and human PD-L1 (18-239) with a C-terminal His epitope tag [hPD-L1(18-239)-TVMV-His] were expressed in HEK293T cells and purified sequentially by ProteinA affinity chromatography and size exclusion chromatography. Human PD-L2-His and CD80-His was obtained through commercial sources.
Homogenous Time-Resolved Fluorescence (HTRF) Assays of Binding of Soluble PD-1 to Soluble PD-L1. Soluble PD-1 and soluble PD-L1 refers to proteins with carboxyl-end truncations that remove the transmembrane-spanning regions and are fused to heterologous sequences, specifically the Fc portion of the human immunoglobuling G sequence (Ig) or the hexahistidine epitope tag (His). All binding studies were performed in an HTRF assay buffer consisting of dPBS supplemented with 0.1% (w/v) bovine serum albumin and 0.05% (v/v) Tween-20. For the PD-1-Ig/PD-L1-His binding assay, inhibitors were pre-incubated with PD-L1-His (10 nM final) for 15m in 4 μl of assay buffer, followed by addition of PD-1-Ig (20 nM final) in 1 μl of assay buffer and further incubation for 15 m. PD-L1 fusion proteins from either human, cynomologous macaques, mouse, or other species were used. HTRF detection was achieved using europium crypate-labeled anti-Ig monoclonal antibody (1 nM final) and allophycocyanin (APC) labeled anti-His monoclonal antibody (20 nM final). Antibodies were diluted in HTRF detection buffer and 5 μl was dispensed on top of binding reaction. The reaction was allowed to equilibrate for 30 minutes and signal (665 nm/620 nm ratio) was obtained using an EnVision fluorometer. Additional binding assays were established between PD-1-Ig/PD-L2-His (20 and 5 nM, respectively), CD80-His/PD-L1-Ig (100 and 10 nM, respectively) and CD80-His/CTLA4-Ig (10 and 5 nM, respectively).
Recombinant Proteins. Carboxyl-truncated human PD-1 (amino acids 25-167) with a C-terminal human Ig epitope tag [hPD-1 (25-167)-3S-IG] and human PD-L1 (amino acids 18-239) with a C-terminal His epitope tag [hPD-L1(19-239)-tobacco vein mottling virus protease cleavage site (TVMV)-His] were expressed in HEK293T cells and purified sequentially by recombinant Protein A affinity chromatography and size exclusion chromatography. Human PD-L2-His (Sino Biologicals), CD80-His (Sino Biologicals), CTLA4-Ig (RnD Systems) were all obtained through commercial sources.

Chain of PD-1/PD-L1 (Q9NZQ7 18-239): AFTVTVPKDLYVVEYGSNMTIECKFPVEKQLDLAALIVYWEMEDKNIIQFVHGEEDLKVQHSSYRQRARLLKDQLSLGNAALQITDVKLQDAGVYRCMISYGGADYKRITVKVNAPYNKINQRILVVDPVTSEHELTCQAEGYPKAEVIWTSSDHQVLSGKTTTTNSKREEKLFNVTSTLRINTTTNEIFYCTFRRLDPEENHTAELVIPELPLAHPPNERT

What is called IC50 is the concentration needed to halve the response being measured. A low value points to greater potency. `Cc1c(COc2cc(OCc3cncc(S(=O)(=O)NCCC(=O)O)c3)c(CN[C@@](C)(CO)C(=O)O)cc2Cl)cccc1-c1ccc2c(c1)OCCO2` [Example 1020, (S)-2-((2-((5-(N-(2-Carboxyethyl)sulfamoyl)pyridin-3-yl)methoxy)-5-chloro-4-((3-(2,3-dihydrobenzo[b]1[1,4]dioxin-6-yl)-2-methylbenzyl)oxy)benzyl)amino)-3-hydroxy-2-methylpropanoic acid] gave an IC50 of 3.1 nM.

`COC(=O)C1(O)CCN(CCOc2cc(OCc3cccc(-c4ccc5c(c4)OCCO5)c3C)c(Cl)cc2CN2CCCC[C@H]2C(=O)O)CC1` [Example 1051, (S)-1-(5-Chloro-4-((3-(2,3-dihydrobenzo[b][1,4]dioxin-6-yl)-2-methylbenzyl)oxy)-2-(2-(4-hydroxy-4-(methoxycarbonyl)piperidin-1-yl)ethoxy)benzyl)piperidine-2-carboxylic acid] registered an IC50 of 1 nM.

`Cc1c(COc2cc(OCC3CCOCC3)c(CN3CCCC[C@H]3C(=O)O)cc2Cl)cccc1-c1ccc2c(c1)OCCO2` [Example 1046, (S)-1-(5-Chloro-4-((3-(2,3-dihydrobenzo[b][1,4]dioxin-6-yl)-2-methylbenzyl)oxy)-2-((tetrahydro-2H-pyran-4-yl)methoxy)benzyl)piperidine-2-carboxylic acid] had a half-inhibitory concentration (IC50) of 7 nM. As for `Cc1c(COc2cc(OCc3cnn(CC(=O)O)c3)c(CN[C@@](C)(CO)C(=O)O)cc2Cl)cccc1-c1ccc2c(c1)OCCO2` [Example 1016, (S)-2-((2-((1-(Carboxymethyl)-1H-pyrazol-4-yl)methoxy)-5-chloro-4-((3-(2,3-dihydrobenzo[b][1,4]dioxin-6-yl)-2-methylbenzyl)oxy)benzyl)amino)-3-hydroxy-2-methylpropanoic acid], the half-maximal inhibitory concentration (IC50) is 5.4 nM. The molecule `Cc1c(COc2cc(OCC3CNCCO3)c(CN3CCCC[C@H]3C(=O)O)cc2Cl)cccc1-c1ccc2c(c1)OCCO2` (stereo partly drawn) [Example 2011, (2S)-1-(5-Chloro-4-((3-(2,3-dihydrobenzo[b][1,4]dioxin-6-yl)-2-methylbenzyl)oxy)-2-(morpholin-2-ylmethoxy)benzyl)piperidine-2-carboxylic acid acetic acid salt] registered an IC50 of 26.5 nM. The molecule `Cc1c(COc2cc(OCc3cncc(C(=O)N[C@@H](CCCNC(=N)N)C(=O)O)c3)c(CN3CC[C@H](O)C3)cc2Cl)cccc1-c1ccc2c(c1)OCCO2` [Example 2010, (S)-2-(5-((4-chloro-5-((3-(2,3-dihydrobenzo[b][1,4]dioxin-6-yl)-2-methylbenzyl)oxy)-2-(((S)-3-hydroxypyrrolidin-1-yl)methyl)phenoxy)methyl)nicotinamido)-5-guanidinopentanoic acid] returned an IC50 of 6.5 nM.

Take `COC(=O)CCSc1cncc(COc2cc(OCc3cccc(-c4ccc5c(c4)OCCO5)c3C)c(Cl)cc2CN[C@@](C)(CO)C(=O)O)c1` [Example 1006, (S)-2-((5-Chloro-4-((3-(2,3-dihydrobenzo[b][1,4]dioxin-6-yl)-2-methylbenzyl)oxy)-2-((5-((3-methoxy-3-oxopropyl)thio)pyridin-3-yl)methoxy)benzyl)amino)-3-hydroxy-2-methylpropanoic acid]: the IC50 is 1.1 nM. As to `Cc1c(COc2cc(OCC3CCCN(C)C3)c(CN[C@@H](CO)C(=O)O)cc2Cl)cccc1-c1ccc2c(c1)OCCO2` (stereo partly drawn) [Example 2004, (2S)-2-((5-chloro-4-((3-(2,3-dihydrobenzo[b][1,4]dioxin-6-yl)-2-methylbenzyl)oxy)-2-((1-methylpiperidin-3-yl)methoxy)benzyl)amino)-3-hydroxypropanoic acid], the IC50 turned out to be 5.8 nM. The molecule `Cc1c(COc2cc(OCc3cncc(C(=O)NCCCN(C)C)c3)c(CN3CC[C@H](O)C3)cc2Cl)cccc1-c1ccc2c(c1)OCCO2` [Example 2007, (S)-5-((4-chloro-5-((3-(2,3-dihydrobenzo[b][1,4]dioxin-6-yl)-2-methylbenzyl)oxy)-2-((3-hydroxypyrrolidin-1-yl)methyl)phenoxy)methyl)-N-(3-(dimethylamino)propyl)nicotinamide] yielded an IC50 of 3.4 nM. As to `Cc1c(COc2cc(OCC3CCOCC3)c(CNC(C)(CO)CO)cc2Cl)cccc1-c1ccc2c(c1)OCCO2` [Example 1047, 2-((5-Chloro-4-((3-(2,3-dihydrobenzo[b][1,4]dioxin-6-yl)-2-methylbenzyl)oxy)-2-((tetrahydro-2H-pyran-4-yl)methoxy)benzyl)amino)-2-methylpropane-1,3-diol], the half-maximal inhibitory concentration (IC50) was found to be 5.4 nM. `Cc1c(COc2cc(OCCCC(F)(F)F)c(CN[C@](C)(CO)C(=O)O)cc2Cl)cccc1-c1ccc2c(c1)OCCO2` [Example 1029, (R)-2-((5-Chloro-4-((3-(2,3-dihydrobenzo[b][1,4]dioxin-6-yl)-2-methylbenzyl)oxy)-2-(4,4,4-trifluorobutoxy)benzyl)amino)-3-hydroxy-2-methylpropanoic acid] registered an IC50 of 1.2 nM. `Cc1c(COc2cc(OCc3cnn(CC(=O)OC(C)(C)C)c3)c(CN[C@@](C)(CO)C(=O)O)cc2Cl)cccc1-c1ccc2c(c1)OCCO2` [Example 1009, (S)-2-((2-((1-(2-(tert-Butoxy)-2-oxoethyl)-1H-pyrazol-4-yl)methoxy)-5-chloro-4-((3-(2,3-dihydrobenzo[b][1,4]dioxin-6-yl)-2-methylbenzyl)oxy)benzyl)amino)-3-hydroxy-2-methylpropanoic acid] gave an IC50 of 43.7 nM. With `Cc1c(COc2cc(OCc3cnn(-c4ccccn4)c3)c(CN[C@@](C)(CO)C(=O)O)cc2Cl)cccc1-c1ccc2c(c1)OCCO2` [Example 1011, (S)-2-((5-Chloro-4-((3-(2,3-dihydrobenzo[b][1,4]dioxin-6-yl)-2-methylbenzyl)oxy)-2-((1-(pyridin-2-yl)-1H-pyrazol-4-yl)methoxy)benzyl)amino)-3-hydroxy-2-methylpropanoic acid], the IC50 came to 11 nM. As to `Cc1c(COc2cc(OCCCCN3CC[C@@H](O)C3)c(CN[C@](C)(CO)C(=O)O)cc2Cl)cccc1-c1ccc2c(c1)OCCO2` [Example 1026, (R)-2-((5-Chloro-4-((3-(2,3-dihydrobenzo[b][1,4]dioxin-6-yl)-2-methylbenzyl)oxy)-2-(4-((R)-3-hydroxypyrrolidin-1-yl)butoxy)benzyl)amino)-3-hydroxy-2-methylpropanoic acid], the 50% inhibitory concentration (IC50) was determined as 2.2 nM. In turn, `Cc1c(COc2cc(OCCN3CCOCC3)c(CN[C@](C)(CO)C(=O)O)cc2Cl)cccc1-c1ccc2c(c1)OCCO2` [Example 1037, (R)-2-((5-Chloro-4-((3-(2,3-dihydrobenzo[b][1,4]dioxin-6-yl)-2-methylbenzyl)oxy)-2-(2-morpholinoethoxy)benzyl)amino)-3-hydroxy-2-methylpropanoic acid] displayed a half-inhibitory concentration (IC50) of 1.8 nM. With `Cc1c(COc2cc(OCc3cncc(S(N)(=O)=O)c3)c(CN[C@@](C)(CO)C(=O)O)cc2Cl)cccc1-c1ccc2c(c1)OCCO2` [Example 1019, (S)-2-((5-Chloro-4-((3-(2,3-dihydrobenzo[b][1,4]dioxin-6-yl)-2-methylbenzyl)oxy)-2-((5-sulfamoylpyridin-3-yl)methoxy)benzyl)amino)-3-hydroxy-2-methylpropanoic acid] the figure was 4.1 nM; with `Cc1c(COc2cc(OCCCC(F)(F)F)c(CN3CCCC[C@H]3C(=O)O)cc2Cl)cccc1-c1ccc2c(c1)OCCO2` [Example 1028, (S)-1-(5-Chloro-4-((3-(2,3-dihydrobenzo[b][1,4]dioxin-6-yl)-2-methylbenzyl)oxy)-2-(4,4,4-trifluorobutoxy)benzyl)piperidine-2-carboxylic acid], 1.8 nM.
